The nature of this experiment: Inhibition of HCV genotype 1b NS3/NS4A protease using DDIVPCSMSYTW as substrate by radiometric enzymatic assay. Details: species or system Hepatitis C virus subtype 1b.

Non-standard residues stand in square brackets, D forms with d. Residues, ends and D or L forms follow the SMILES beside them. *: point of attachment. Hyp = O=C(O)[C@@H]1C[C@@H](O)CN1; Nva = CCC[C@H](N)C(=O)O; Bn = c1ccc(C*)cc1

`C=C[C@@H]1C[C@]1(NC(=O)[C@@H]1C[C@@H](Oc2cc(-c3ccccc3)nc3cc(OC)ccc23)CN1C(=O)[C@@H](NC(=O)OC(C)(C)C)C(C)(C)C)C(=O)O`: the inhibition constant Ki was 0.02 µM.
Still for that read-out and setting: to `C=C[C@@H]1C[C@]1(NC(=O)[C@@H]1C[C@@H](Oc2cc(-c3ccccc3)nc3cc(OC)ccc23)CN1C(C)=O)C(=O)O` belongs 28 µM.
On the same count and under the same terms, the value for `C=C[C@@H]1C[C@]1(NC(=O)[C@@H]1C[C@@H](Oc2ccnc3ccccc23)CN1C(=O)[C@@H](NC(=O)OC(C)(C)C)C(C)(C)C)C(=O)O` was 0.14 µM; that for `C=C[C@@H]1C[C@]1(NC(=O)[C@@H]1C[C@@H](Oc2cccc3ccccc23)CN1C(=O)[C@@H](NC(=O)OC(C)(C)C)C(C)(C)C)C(=O)O` was 0.31 µM.
Compound `C=C[C@@H]1C[C@]1(NC(=O)[C@@H]1C[C@@H](Oc2ccncc2)CN1C(=O)[C@@H](NC(=O)OC(C)(C)C)C(C)(C)C)C(=O)O` yielded a Ki of 29 µM.
`C=C[C@@H]1C[C@]1(NC(=O)[C@@H]1C[C@@H](Oc2ccccc2)CN1C(=O)[C@@H](NC(=O)OC(C)(C)C)C(C)(C)C)C(=O)O` yielded a Ki of 29 µM.
Same read-out and setting: the value for `C=C[C@@H]1C[C@]1(NC(=O)[C@@H]1CCCN1C(=O)[C@@H](NC(=O)OC(C)(C)C)C(C)(C)C)C(=O)O` was over 600 µM; that for `COc1ccc2c(O[C@@H]3C[C@@H](C(=O)NC4(C(=O)O)CC4)N(C(=O)[C@@H](NC(=O)OC(C)(C)C)C(C)(C)C)C3)cc(-c3ccccc3)nc2c1` was 0.35 µM; that for `COc1ccc2c(O[C@@H]3C[C@@H](C(=O)NCC(=O)O)N(C(=O)[C@@H](NC(=O)OC(C)(C)C)C(C)(C)C)C3)cc(-c3ccccc3)nc2c1` was 56 µM.
Still for that read-out and setting: to `C=C[C@@H]1C[C@]1(NC(=O)[C@@H]1C[C@@H](Oc2cc(-c3ccccc3)nc3cc(OC)ccc23)CN1C(=O)[C@H](C)NC(=O)OC(C)(C)C)C(=O)O` belongs 0.31 µM; to `C=C[C@@H]1C[C@]1(NC(=O)[C@@H]1C[C@@H](Oc2cc(-c3ccccc3)nc3cc(OC)ccc23)CN1C(=O)CNC(=O)OC(C)(C)C)C(=O)O`, 3 µM.
`C=C[C@@H]1C[C@]1(NC(=O)[C@@H]1C[C@@H](Oc2cc(-c3ccccc3)nc3cc(OC)ccc23)CN1C(=O)CC(C)(C)C)C(=O)O` displayed a Ki of 1.6 µM.
Still for that read-out and setting: the value for `CCC[C@H](NC(=O)[C@@H]1C[C@@H](OCc2ccccc2)CN1C(=O)[C@@H](NC(=O)[C@@H](NC(=O)[C@H](CC(=O)O)NC(=O)[C@H](CC(=O)O)NC(C)=O)[C@@H](C)CC)C(C)C)C(=O)O` (Ac-DDIV[Hyp](Bn)[Nva]-OH) was 1.9 µM.
For H-DDIVPC-OH, the IC50 came to 71 µM and the Ki worked out at 19 µM.

Source of the values: ChEMBL document CHEMBL3120047, “Ligand bioactive conformation plays a critical role in the design of drugs that target the hepatitis C virus NS3 protease” (J Med Chem, 2014).
